These results are taken from ChEMBL document CHEMBL1671751, “FRET-based sensors for the human M1-, M3-, and M5-acetylcholine receptors” (Bioorg Med Chem, 2011).

Assay [1] has as its target T1, Muscarinic acetylcholine receptor M5 (Homo sapiens) (UniProt P08912).
T1 sequence (whole entry): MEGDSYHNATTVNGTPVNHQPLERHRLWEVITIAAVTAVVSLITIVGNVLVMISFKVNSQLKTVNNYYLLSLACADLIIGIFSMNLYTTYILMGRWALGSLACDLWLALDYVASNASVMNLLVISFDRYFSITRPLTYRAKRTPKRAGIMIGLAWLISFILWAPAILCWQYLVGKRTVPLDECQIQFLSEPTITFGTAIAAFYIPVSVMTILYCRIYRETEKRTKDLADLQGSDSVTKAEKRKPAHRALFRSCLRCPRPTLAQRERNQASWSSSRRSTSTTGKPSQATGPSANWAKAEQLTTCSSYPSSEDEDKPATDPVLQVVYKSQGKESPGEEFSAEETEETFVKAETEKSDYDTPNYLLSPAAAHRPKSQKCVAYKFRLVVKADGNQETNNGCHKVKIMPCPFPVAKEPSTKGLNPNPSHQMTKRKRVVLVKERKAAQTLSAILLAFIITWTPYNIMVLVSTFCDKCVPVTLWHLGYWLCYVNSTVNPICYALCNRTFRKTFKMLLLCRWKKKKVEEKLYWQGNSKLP
The assay is described as follows: Agonist activity at M5-ACh receptor-FLASH/CFP expressed in HEK293 cells assessed as rate constant at 100 uM to 1 mM by FRET method. Type of assay: functional, cell-based.

For assay [2], the target named is T1, Muscarinic acetylcholine receptor M5 (Homo sapiens). The assay is described as follows: Agonist activity at M5-ACh receptor-FLASH/CFP expressed in HEK293 cells assessed as half-maximal activation time at 100 uM to 1 mM by FRET method. Type of assay: functional, cell-based.
In assay [3] the target is T2, Muscarinic acetylcholine receptor M5 (Homo sapiens, UniProt P08912).
T2 sequence (P08912 whole entry): T1 sequence (whole entry)
The assay is described as follows: Activation of M5-ACh receptor-FLASH/CFP expressed in HEK293 cells assessed as FRET signal. Type of assay: cell-based.

Assay [4] deals with Muscarinic acetylcholine receptor M3 (Homo sapiens, UniProt P20309). Put plainly: Activation of M3-ACh receptor-FLASH/CFP expressed in HEK293 cells assessed as FRET signal. It counts as cell-based.
Chain of Muscarinic acetylcholine receptor M3 (P20309 whole entry): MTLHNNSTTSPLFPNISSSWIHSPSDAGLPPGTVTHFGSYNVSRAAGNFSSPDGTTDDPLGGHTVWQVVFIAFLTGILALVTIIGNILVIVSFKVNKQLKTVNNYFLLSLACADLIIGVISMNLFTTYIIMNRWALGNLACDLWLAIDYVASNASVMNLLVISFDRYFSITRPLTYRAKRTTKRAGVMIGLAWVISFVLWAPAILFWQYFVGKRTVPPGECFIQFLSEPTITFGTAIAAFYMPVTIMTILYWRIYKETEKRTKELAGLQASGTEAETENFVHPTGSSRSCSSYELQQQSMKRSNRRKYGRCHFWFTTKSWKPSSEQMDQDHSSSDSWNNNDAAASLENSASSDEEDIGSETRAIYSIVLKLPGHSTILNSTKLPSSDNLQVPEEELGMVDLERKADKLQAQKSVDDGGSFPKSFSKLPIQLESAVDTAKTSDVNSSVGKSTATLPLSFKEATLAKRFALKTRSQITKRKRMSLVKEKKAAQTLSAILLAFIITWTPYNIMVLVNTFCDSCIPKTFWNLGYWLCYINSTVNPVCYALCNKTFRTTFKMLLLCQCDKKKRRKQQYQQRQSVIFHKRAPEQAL
Assay [5] addresses T3, Muscarinic acetylcholine receptor M1 (Homo sapiens, UniProt P11229).
T3 sequence (P11229 whole entry): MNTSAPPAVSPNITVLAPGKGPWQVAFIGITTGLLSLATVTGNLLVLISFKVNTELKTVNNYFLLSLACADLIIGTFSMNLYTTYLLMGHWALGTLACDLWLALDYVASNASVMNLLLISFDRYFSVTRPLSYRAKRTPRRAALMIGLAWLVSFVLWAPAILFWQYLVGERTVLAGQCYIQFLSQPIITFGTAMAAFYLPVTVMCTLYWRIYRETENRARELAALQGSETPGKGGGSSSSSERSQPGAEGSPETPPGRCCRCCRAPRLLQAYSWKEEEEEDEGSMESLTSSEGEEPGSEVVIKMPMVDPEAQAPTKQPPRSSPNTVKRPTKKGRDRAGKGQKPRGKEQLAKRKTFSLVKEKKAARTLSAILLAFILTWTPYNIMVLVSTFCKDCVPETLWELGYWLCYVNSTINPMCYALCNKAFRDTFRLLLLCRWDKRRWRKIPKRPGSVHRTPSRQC
Put plainly: Activation of M1-ACh receptor-FLASH/CFP expressed in HEK293 cells assessed as FRET signal. Type of assay: cell-based.

The EC50 is the midpoint of the concentration-response curve.

`CC(=O)OCC[N+](C)(C)C`: the Activity in assay [1] amounted to 15.4 s⁻¹. In addition, the TIME in assay [2] is 1.81e-05 h.
The like results for `C[N+](C)(C)CCOC(N)=O` were, in that order, 14.7 s⁻¹ and 1.89e-05 h.
Consider `C[C@@H]1O[C@H](C[N+](C)(C)C)C[C@H]1O` [MUSCARINE CHLORIDE], for which, in assay [1], the Activity amounted to 13.9 s⁻¹. The TIME in assay [2] amounted to 2e-05 h. The EC50 was determined as 1300 nM in assay [3] and 1000 nM in assay [4].
In the case of `C[N+](C)(C)CC#CCN1CCCC1=O` [OXOTREMORINE METHIODIDE], the Activity in assay [1] amounted to 9.6 s⁻¹. In addition, in assay [2], the TIME was 2.89e-05 h. The values for the EC50 in assay [5], in assay [3] and in assay [4] were 7400 nM, 2300 nM and 1800 nM, respectively.
